Assay results published in ChEMBL document CHEMBL4420075, “Seriniquinones, melanoma-specific anticancer agents” (2016).
Calls of active or inactive are those of the source. The rule behind the calls is not given here.

Key:
NCI-H322M = test: Growth inhibition of human NCI-H322M cells assessed as cell growth incubated for 48 hrs by sulforhodamine B assay; format: functional; set-up: scale not given: the % may be the effect or the level left
NCI/ADR-RES = test: Growth inhibition of human NCI/ADR-RES cells assessed as cell growth incubated for 48 hrs by sulforhodamine B assay; format: functional; set-up: concentration or dose not given beside the values
A498 = test: Growth inhibition of human A498 cells assessed as cell growth incubated for 48 hrs by sulforhodamine B assay; format: functional; set-up: concentration or dose not given beside the values
MDA-MB-468 = test: Growth inhibition of human MDA-MB-468 cells assessed as cell growth incubated for 48 hrs by sulforhodamine B assay; format: functional; set-up: concentration or dose not given beside the values
HOP-92 = test: Growth inhibition of human HOP92 cells assessed as cell growth incubated for 48 hrs by sulforhodamine B assay; format: functional; set-up: concentration or dose not given beside the values
HCT-15 = test: Growth inhibition of human HCT15 cells assessed as cell growth incubated for 48 hrs by sulforhodamine B assay; format: functional; set-up: scale not given: the % may be the effect or the level left
SF-295 = test: Growth inhibition of human SF295 cells assessed as cell growth incubated for 48 hrs by sulforhodamine B assay; format: functional; set-up: concentration or dose not given beside the values
KM12 = test: Growth inhibition of human KM12 cells assessed as cell growth incubated for 48 hrs by sulforhodamine B assay; format: functional; set-up: concentration or dose not given beside the values
SN12C = test: Growth inhibition of human SN12C cells assessed as cell growth incubated for 48 hrs by sulforhodamine B assay; format: functional; set-up: concentration or dose not given beside the values
SK-MEL-2 = test: Growth inhibition of human SK-MEL-2 cells assessed as cell growth incubated for 48 hrs by sulforhodamine B assay; format: functional; set-up: concentration or dose not given beside the values
TK-10 = test: Growth inhibition of human TK10 cells assessed as cell growth incubated for 48 hrs by sulforhodamine B assay; format: functional; set-up: concentration or dose not given beside the values
SK-MEL-28 = test: Growth inhibition of human SK-MEL-28 cells assessed as cell growth incubated for 48 hrs by sulforhodamine B assay; format: functional; set-up: concentration or dose not given beside the values
MDA-MB-435 = test: Growth inhibition of human MDA-MB-435 cells assessed as cell growth incubated for 48 hrs by sulforhodamine B assay; format: functional; set-up: concentration or dose not given beside the values
HCT-116 = test: Growth inhibition of human HCT116 cells assessed as cell growth incubated for 48 hrs by sulforhodamine B assay; format: functional; set-up: concentration or dose not given beside the values
SF-539 = test: Growth inhibition of human SF539 cells assessed as cell growth incubated for 48 hrs by sulforhodamine B assay; format: functional; set-up: scale not given: the % may be the effect or the level left
SNB-75 = test: Growth inhibition of human SNB75 cells assessed as cell growth incubated for 48 hrs by sulforhodamine B assay; format: functional; set-up: concentration or dose not given beside the values
786-0 = test: Growth inhibition of human 786-0 cells assessed as cell growth incubated for 48 hrs by sulforhodamine B assay; format: functional; set-up: concentration or dose not given beside the values
SF-268 = test: Growth inhibition of human SF268 cells assessed as cell growth incubated for 48 hrs by sulforhodamine B assay; format: functional; set-up: concentration or dose not given beside the values
Malme-3M = test: Growth inhibition of human MALME-3M cells assessed as cell growth incubated for 48 hrs by sulforhodamine B assay; format: functional; set-up: scale not given: the % may be the effect or the level left
OVCAR-4 = test: Growth inhibition of human OVCAR4 cells assessed as cell growth incubated for 48 hrs by sulforhodamine B assay; format: functional; set-up: concentration or dose not given beside the values
NCI-H522 = test: Growth inhibition of human NCI-H522 cells assessed as cell growth incubated for 48 hrs by sulforhodamine B assay; format: functional; set-up: concentration or dose not given beside the values
SR = test: Growth inhibition of human SR cells assessed as cell growth incubated for 48 hrs by sulforhodamine B assay; format: functional; set-up: concentration or dose not given beside the values
NCI-H23 = test: Growth inhibition of human NCI-H23 cells assessed as cell growth incubated for 48 hrs by sulforhodamine B assay; format: functional; set-up: concentration or dose not given beside the values
SNB-19 = test: Growth inhibition of human SNB19 cells assessed as cell growth incubated for 48 hrs by sulforhodamine B assay; format: functional; set-up: concentration or dose not given beside the values
HOP-62 = test: Growth inhibition of human HOP62 cells assessed as cell growth incubated for 48 hrs by sulforhodamine B assay; format: functional; set-up: concentration or dose not given beside the values
MOLT-4 = test: Growth inhibition of human MOLT4 cells assessed as cell growth incubated for 48 hrs by sulforhodamine B assay; format: functional; set-up: concentration or dose not given beside the values
OVCAR-8 = test: Growth inhibition of human OVCAR8 cells assessed as cell growth incubated for 48 hrs by sulforhodamine B assay; format: functional; set-up: concentration or dose not given beside the values
Hs-578T = test: Growth inhibition of human Hs 578T cells assessed as cell growth incubated for 48 hrs by sulforhodamine B assay; format: functional; set-up: concentration or dose not given beside the values
OVCAR-5 = test: Growth inhibition of human OVCAR5 cells assessed as cell growth incubated for 48 hrs by sulforhodamine B assay; format: functional; set-up: scale not given: the % may be the effect or the level left
UO-31 = test: Growth inhibition of human UO31 cells assessed as cell growth incubated for 48 hrs by sulforhodamine B assay; format: functional; set-up: concentration or dose not given beside the values
NCI-H226 = test: Growth inhibition of human NCI-H226 cells assessed as cell growth incubated for 48 hrs by sulforhodamine B assay; format: functional; set-up: concentration or dose not given beside the values
A549 = test: Growth inhibition of human A549/ATCC cells assessed as cell growth incubated for 48 hrs by sulforhodamine B assay; format: functional; set-up: concentration or dose not given beside the values
CCRF-CEM = test: Growth inhibition of human CCRF-CEM cells assessed as cell growth incubated for 48 hrs by sulforhodamine B assay; format: functional; set-up: concentration or dose not given beside the values
HT-29 = test: Growth inhibition of human HT-29 cells assessed as cell growth incubated for 48 hrs by sulforhodamine B assay; format: functional; set-up: concentration or dose not given beside the values
SW-620 = test: Growth inhibition of human SW620 cells assessed as cell growth incubated for 48 hrs by sulforhodamine B assay; format: functional; set-up: concentration or dose not given beside the values
T47D = test: Growth inhibition of human T47D cells assessed as cell growth incubated for 48 hrs by sulforhodamine B assay; format: functional; set-up: concentration or dose not given beside the values
CAKI-1 = test: Growth inhibition of human Caki1 cells assessed as cell growth incubated for 48 hrs by sulforhodamine B assay; format: functional; set-up: concentration or dose not given beside the values
COLO 205 = test: Growth inhibition of human COLO205 cells assessed as cell growth incubated for 48 hrs by sulforhodamine B assay; format: functional; set-up: concentration or dose not given beside the values
ACHN = test: Growth inhibition of human ACHN cells assessed as cell growth incubated for 48 hrs by sulforhodamine B assay; format: functional; set-up: scale not given: the % may be the effect or the level left
PC-3 = test: Growth inhibition of human PC3 cells assessed as cell growth incubated for 48 hrs by sulforhodamine B assay; format: functional; set-up: concentration or dose not given beside the values
HL-60(TB) = test: Growth inhibition of human HL-60(TB) cells assessed as cell growth incubated for 48 hrs by sulforhodamine B assay; format: functional; set-up: concentration or dose not given beside the values
OVCAR-3 = test: Growth inhibition of human OVCAR3 cells assessed as cell growth incubated for 48 hrs by sulforhodamine B assay; format: functional; set-up: concentration or dose not given beside the values
MDA-MB-231 = test: Growth inhibition of human MDA-MB-231 cells assessed as cell growth incubated for 48 hrs by sulforhodamine B assay; format: functional; set-up: concentration or dose not given beside the values
MCF7 = test: Growth inhibition of human MCF7 cells assessed as cell growth incubated for 48 hrs by sulforhodamine B assay; format: functional; set-up: concentration or dose not given beside the values
UACC-62 = test: Growth inhibition of human UACC62 cells assessed as cell growth incubated for 48 hrs by sulforhodamine B assay; format: functional; set-up: concentration or dose not given beside the values
K562 = test: Growth inhibition of human K562 cells assessed as cell growth incubated for 48 hrs by sulforhodamine B assay; format: functional; set-up: concentration or dose not given beside the values
NCI-H460 = test: Growth inhibition of human NCI-H460 cells assessed as cell growth incubated for 48 hrs by sulforhodamine B assay; format: functional; set-up: concentration or dose not given beside the values
HCC 2998 = test: Growth inhibition of human HCC2998 cells assessed as cell growth incubated for 48 hrs by sulforhodamine B assay; format: functional; set-up: concentration or dose not given beside the values
RPMI-8226 = test: Growth inhibition of human RPMI8226 cells assessed as cell growth incubated for 48 hrs by sulforhodamine B assay; format: functional; set-up: concentration or dose not given beside the values
LOX IMVI = test: Growth inhibition of human LOXIMVI cells assessed as cell growth incubated for 48 hrs by sulforhodamine B assay; format: functional; set-up: concentration or dose not given beside the values
RXF 393 = test: Growth inhibition of human RXF393 cells assessed as cell growth incubated for 48 hrs by sulforhodamine B assay; format: functional; set-up: concentration or dose not given beside the values
M14 = test: Growth inhibition of human M14 cells assessed as cell growth incubated for 48 hrs by sulforhodamine B assay; format: functional; set-up: concentration or dose not given beside the values
U-251 = test: Growth inhibition of human U251 cells assessed as cell growth incubated for 48 hrs by sulforhodamine B assay; format: functional; set-up: concentration or dose not given beside the values
SK-OV-3 = test: Growth inhibition of human SKOV3 cells assessed as cell growth incubated for 48 hrs by sulforhodamine B assay; format: functional; set-up: concentration or dose not given beside the values
UACC-257 = test: Growth inhibition of human UACC257 cells assessed as cell growth incubated for 48 hrs by sulforhodamine B assay; format: functional; set-up: concentration or dose not given beside the values
SK-MEL-5 = test: Growth inhibition of human SK-MEL-5 cells assessed as cell growth incubated for 48 hrs by sulforhodamine B assay; format: functional; set-up: concentration or dose not given beside the values
BT-549 = test: Growth inhibition of human BT549 cells assessed as cell growth incubated for 48 hrs by sulforhodamine B assay; format: functional; set-up: concentration or dose not given beside the values
DU-145 = test: Growth inhibition of human DU145 cells assessed as cell growth incubated for 48 hrs by sulforhodamine B assay; format: functional; set-up: concentration or dose not given beside the values
Dermcidin (Homo sapiens) = molecular target: T1, Dermcidin (Homo sapiens) (UniProt P81605); test: Covalent binding affinity to DCD-1L (unknown origin) at 50 uM incubated for 24 hrs by denatured SDS-PAGE gel electrophoresis
T1 sequence (whole entry): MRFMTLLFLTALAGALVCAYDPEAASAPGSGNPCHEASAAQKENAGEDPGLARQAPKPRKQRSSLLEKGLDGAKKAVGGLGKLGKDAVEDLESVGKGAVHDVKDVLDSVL

`CC(C)(O)C(O)CCc1ccc2c(=O)c3sc4c(=O)c5ccccc5c(=O)c4c3c(=O)c2c1` (centres undefined) was tested, and the Activity (NCI-H322M) was -97.48%, the Activity (NCI/ADR-RES) was -15.35% and the Activity (A498) was -87.3%. The Activity (MDA-MB-468) was -83.65%, the Activity (HOP-92) was -32.93% and the Activity (HCT-15) was -61.54%. It also gave an Activity (SF-295) of -92.59%, an Activity (KM12) of -76.76% and an Activity (SN12C) of -69%. The Activity (SK-MEL-2) was -72.32%, the Activity (TK-10) was -89.49% and the Activity (SK-MEL-28) was -96.8%. For the same compound, the Activity (MDA-MB-435) was -93.07%, the Activity (HCT-116) was -80.84% and the Activity (SF-539) was -99.46%. It also gave an Activity (SNB-75) of -95.74%, an Activity (786-0) of -95.07% and an Activity (SF-268) of -57.54%. It also gave an Activity (Malme-3M) of -93.22%, an Activity (OVCAR-4) of -71.07% and an Activity (NCI-H522) of -72.26%. The Activity (SR) was -25%, the Activity (NCI-H23) was -50.82% and the Activity (SNB-19) was -98.59%. The Activity (HOP-62) was -90.94%, the Activity (MOLT-4) was -36.2% and the Activity (OVCAR-8) was -38.88%. For the same compound, the Activity (Hs-578T) was 1.09%, the Activity (OVCAR-5) was -85.63% and the Activity (UO-31) was -96.98%. For the same compound, the Activity (NCI-H226) was -49.62%, the Activity (A549) was -55.33% and the Activity (CCRF-CEM) was -29.57%. For the same compound, the Activity (HT-29) was -46.19%, the Activity (SW-620) was -60.32% and the Activity (T47D) was -51.1%. For the same compound, the Activity (CAKI-1) was -78.75%, the Activity (COLO 205) was -91.79% and the Activity (ACHN) was -96.22%. The Activity (PC-3) was -79.46%, the Activity (HL-60(TB)) was -46.78% and the Activity (OVCAR-3) was -68.52%. For the same compound, the Activity (MDA-MB-231) was -15.99%, the Activity (MCF7) was -58.78% and the Activity (UACC-62) was -88.01%. It also gave an Activity (K562) of -59.88%, an Activity (NCI-H460) of -52.32% and an Activity (HCC 2998) of -90.76%. For the same compound, the Activity (RPMI-8226) was -39.84%, the Activity (LOX IMVI) was -82.6% and the Activity (RXF 393) was -77.25%. For the same compound, the Activity (M14) was -93.82%, the Activity (U-251) was -92.83% and the Activity (SK-OV-3) was -97.49%. For the same compound, the Activity (UACC-257) was -92.08%, the Activity (SK-MEL-5) was -98.07% and the Activity (BT-549) was -96.67%. The Activity (DU-145) was -94.41%.
In the case of `O=C(O)CCc1ccc2c(=O)c3c(sc4c(=O)c5ccccc5c(=O)c43)c(=O)c2c1`, the Activity (Dermcidin (Homo sapiens)) is reported as “Active”.
